The test system of assay [1] is human liver cancer QGY-7703. It is filed as in vivo, nude mice. As to conditions: ip × 7 qd; for Tumor Inhibition rate %: counted by tumor weight. The protocol:
(§1) ACP Administration Group: oral doses were 5, 2.5 and 1.25 mg/kg; oral administration twice a day (with an interval of about 6 hours) for 14 days.
(§2) ACP+Adriamycin or Cyclophosphamide Administration Group: oral doses of ACP were 5, 2.5 and 1.25 mg/kg; oral administration twice a day (with an interval of about 6 hours) for 14 days. Adriamycin lmg/kg or Cyclophosphamide 15 mg/kg were administered intraperitoneally 10 min after the first ACP administration for 7 consecutive days.
(§3) Positive Control Group: Adriamycin 2 mg/kg/time or cyclophosphamide 30 mg/kg/time were administered intraperitoneally once a day for 7 days.
(§4) Negative Control Group: the same volume of solvent as the experimental group was administered, and the administration scheme was the same as that of the experimental group.
(§5) Human tumor cell lines cryopstored in liquid nitrogen were cultured at 37° C. and 5% CO2 after resuscitation. After subculture, the cells in logarithmic growth period were taken and prepared into cell suspension of about (1-2)×10^7 Cell/ml, and inoculated subcutaneously in the right axilla of nude mice 0.2 ml/mice. Under aseptic conditions, tumor tissues of the second or later generations of human tumors liver cancer QGY-7703, pancreatic cancer PANC-1, and lung cancer A549 xenograft models with vigorous growth in vivo, were taken and cut into uniform pieces with the size of 1-2 mm3, and one piece was subcutaneously inoculated in the right axilla of each naked mouse with trocar. The mouse were randomly divided into groups till the tumors inoculated grow to more than 100 mm^3 and administered according to the experimental design scheme.
(§6) After administration, the tumor size was dynamically observed and tested, and the body weight of tumor-bearing mice was weighed. The short diameter (a) and long diameter (b) of the tumor of the naked mouse were measured with calipers every 3 days, and the tumor volume was calculated according to the formula of (a^2×b)/2. The relative tumor volume (RTV) was calculated from the measured and calculated tumor volume, RTV=Vt/V0. Wherein, Vo is the tumor volume at random grouping (i.e., d0), and Vt is the tumor volume at each measurement (i.e., dn). The animals in each group were sacrificed at about three weeks, and the tumor volume was measured, dissected and weighed. The relative tumor proliferation rate and tumor inhibition rate were calculated according to the following formula: […]

The subject of assay [2] is pancreatic cancer tissue from patients. Nature of the assay: Efficacy of ACP combined with gemcitabine in pancreatic cancer SuperPDTX mice model. The format is in vivo, NCG mice. The conditions noted are these: ACP 5 mg/kg p.o. Bid*7, Gemcitabine 30 mg/kg i.p. BIW. The text has this: (§7) Mice: NCG (NOD-Prkdcem26I12rgem26Nju), Institute of Biomedical Research, Nanjing University
Pancreatic cancer tissue mass were the P2 generation samples of cryopreserved collected from mice after inoculation of the samples from patients with pancreatic cancer, and the samples used in this experiment were P3 generation samples after passage.
(§8) Pancreatic cancer samples were inoculated in the tested mice, and the size of inoculated tissue was 1*1*4mm^3. On the day of inoculation, mice were randomly divided into 4 experimental groups with 6 mice in each group and 4 mice in each cage. The day of grouping was defined as Day 0. The mice were administered according to the experimental protocol for 7 days, and sampled within 24 hours after the end of administration. 24h after the last administration, the experiment was ended, the mice were sacrificed, the tumor was removed, the surrounding connective tissue and muscle tissue were removed under the microscope, and stored in 10% formaldehyde.

Assay [3] deals with liver cancer tissue from patients. Briefly: Efficacy of ACP combined with oxaliplatin or sorafenib in liver cancer SuperPDTX mice model. The format is in vivo, NCG mice. As to conditions: pathology after 7 days; ACP 5 mg/kg p.o. Bid*7, Sorafenib 60 mg/kg p.o. Qd*7, Oxaliplatin 6 mg/kg i.p. Biw*1.
Text: as §7
as §8, with “Liver cancer tissue mass were the P1 generation samples of cryopreserved collected from mice after inoculation of the samples from patients with liver cancer, and the samples used in this experiment were P2 generation samples after passage. Liver cancer” for “Pancreatic cancer”, “was 1*1*4 mm^3.” for “was 1*1*4mm^3.”, “into 6” for “into 4”, “administration. 24 h” for “administration. 24h”

The subject of assay [4] is human pancreatic cancer PANC-1. Nature of the assay: Human pancreatic cancer PANC-1 xenograft transplantation model in nude mice. The format is in vivo. The conditions noted are these: ip × 7 qd; for Tumor Inhibition rate %: counted by tumor weight. The protocol:
as §1, §2, §3, §4, §5, §6
On the technique in general: Xenograft models place foreign cells or tissue in a host animal.

In the next assay the test system is human lung cancer A549. Nature of the assay: Human lung cancer A549 xenograft transplantation model in nude mice. The format is in vivo. As to conditions: ip × 7 qd; for Tumor Inhibition rate %: counted by tumor weight. The protocol:
as §1, §2, §3, §4, §5, §6

These results are taken from patent publication US20220168319A1, “COMBINED USE OF A-NOR-5alpha ANDROSTANE COMPOUND DRUG AND ANTICANCER DRUG” (SHANGHAI AO QI MEDICAL TECHNOLOGY CO., LTD., priority 2019, published 2022).

The structures appear in SMILES notation. Like-named read-outs stand apart in the source and are kept apart here.

For the compound `O=P1(N(CCCl)CCCl)NCCCO1` (stereo not shown) [Cyclophosphamide, cyclophosphamide], in assay [1] (15 mg/kg), the “Tumor weight (gram) x ± SD” value was 1.010 ± 0.19 gram and the “Tumor Inhibition rate %” value came to 36.88%. Besides, in assay [1] (30 mg/kg), the “Tumor weight (gram) x ± SD” value is reported as 0.197 ± 0.04 gram and the “Tumor Inhibition rate %” value is 87.69%.
On to `Nc1ccn([C@@H]2O[C@H](CO)[C@@H](O)C2(F)F)c(=O)n1` [Gemcitabine, gemcitabine], for which, in assay [2] (immunohistochemistry after 7 days), the “Tumor Ki67 Mean” value turned out to be 23.33 ± 5.16. Also, in assay [2] (pathology after 7 days), the Heterotypic Degree entry was “Moderate”, the “Proportion of tumor necrosis TCNR Mean” value was found to be 0.00 ± 0.00 and the “Tumor component Mean” value is on record as 55.00 ± 18.71.
As to `O=C1[O][Pt]2([NH][C@@H]3CCCC[C@H]3[NH]2)[O]C1=O` [Oxaliplatin, oxaliplatin], in assay [3], the “Heterotypic Degree” value was “Severe”, the “Proportion of tumor necrosis TCNR Mean” value is reported as 16.67 ± 8.76% and the “Tumor component Mean” value turned out to be 53.33 ± 15.1%.
For `CNC(=O)c1cc(Oc2ccc(NC(=O)Nc3ccc(Cl)c(C(F)(F)F)c3)cc2)ccn1` [Sorafenib, sorafenib] the same measures were “Severe”, 18.33 ± 7.52% and 58.33 ± 24.8%.
As for `COc1cccc2c1C(=O)c1c(O)c3c(c(O)c1C2=O)C[C@@](O)(C(=O)CO)C[C@@H]3O[C@H]1C[C@H](N)[C@H](O)[C@H](C)O1` [adriamycin], the “Tumor weight (gram) x ± SD” value in assay [4] (1 mg/kg) was 0.668 ± 0.09 gram; in assay [4] (2 mg/kg) it was 0.265 ± 0.06 gram; with human lung cancer A549 (1 mg/kg) it was 0.843 ± 0.08 gram; with human lung cancer A549 (2 mg/kg), 0.198 ± 0.04 gram. In addition, the “Tumor Inhibition rate %” value in assay [4] (1 mg/kg) stood at 34.51%; in assay [4] (2 mg/kg) it was 74.02%; with human lung cancer A549 (1 mg/kg), 42.26%; in the assay on human lung cancer A549 (2 mg/kg) it was 86.30%.
